This is an account of results in ChEMBL document CHEMBL2169792, “Synthesis of new 4-thiazolidinone-, pyrazoline-, and isatin-based conjugates with promising antitumor activity” (J Med Chem, 2012).

Data set [1] is described as follows: Cytotoxicity against human CNS cancer cells after 48 hrs by SRB assay. In kind it is functional. The note with it: Cancer cell lines.
The test system of the next data set is Mus musculus. Put plainly: Antitumor activity in ip dosed athymic nude mouse hollow fiber model assessed as reduction of viable cell mass. In kind it is functional, organism-based.
The nature of data set [2]: Cytotoxicity against human prostate cancer cells after 48 hrs by SRB assay. The note with it: Cancer cell lines. It is filed as functional.
The nature of data set [3]: Cytotoxicity against human breast cancer cells after 48 hrs by SRB assay. It is filed as functional. The conditions noted are these: Cancer cell lines.
The nature of data set [4]: Cytotoxicity against human renal cancer cells after 48 hrs by SRB assay. It is filed as functional. The conditions noted are these: Cancer cell lines.
A short description of data set [5]: Cytotoxicity against human non-small cell lung cancer cells after 48 hrs by SRB assay. It is filed as functional. The note with it: Cancer cell lines; for CC50: read-out: LC50 (the source's name).
Data set [6] can be described thus: Toxicity in mouse. In kind it is organism-based. The note with it: in vivo.
The subject of another data set is U-251. Description: Cytotoxicity against human U251 cells assessed as cell growth at 10 uM after 48 hrs by SRB assay. It is filed as functional. The conditions noted are these: U-251, 48 h, read-out: Activity.
Data set [7] in a line: Cytotoxicity against human colon cancer cells after 48 hrs by SRB assay. It is filed as functional. The conditions noted are these: Cancer cell lines.
Data set [8] in a line: Cytotoxicity against human ovarian cancer cells after 48 hrs by SRB assay. The conditions noted are these: Cancer cell lines. It is filed as functional.
Data set [9] in a line: Cytotoxicity against human leukemia cells after 48 hrs by SRB assay. It is filed as functional. The conditions noted are these: Leukemia cell; for CC50: read-out: LC50 (the source's name).
Data set [10] can be described thus: Cytotoxicity against human melanoma cells after 48 hrs by SRB assay. In kind it is functional. The note with it: Melanoma cell; for CC50: read-out: LC50 (the source's name).
The subject of a further data set is NCI-H522. Put plainly: Cytotoxicity against human NCI-H522 cells assessed as cell growth at 10 uM after 48 hrs by SRB assay. In kind it is functional. The conditions noted are these: NCI-H522, 48 h, read-out: Activity.

Activity calls are given as the source filed them. The rule behind the calls is not given here.

As for `O=C1N=C(N2N=C(c3ccc4ccccc4c3)CC2c2ccc(Cl)cc2)S/C1=C1/C(=O)Nc2ccccc21` (stereo unspecified), the GI50 in data set [1] stood at 8.8 µM; in data set [2], 0.4 µM; in [3], 0.74 µM; in data set [4], 0.4 µM; in [5], 0.46 µM; in data set [7], 0.53 µM. For the same molecule, the GI50 in [8] worked out at 15.4 µM; in data set [9], 19.1 µM; in data set [10], 0.35 µM. The molecule further yielded an LC50 (concentration giving 50% net cell kill) in data set [1] of 75.9 µM. Besides, the TGI in data set [1] stood at 27.3 µM; in [2], 50.7 µM; in data set [3] it was 38.3 µM; in data set [4] it was 42.1 µM; in data set [5], 20.9 µM; in data set [7] it was 70.3 µM. Besides, the TGI worked out at 56.1 µM in [8], 71.6 µM in data set [9] and 24.7 µM in data set [10]. Also, the outcome in the data set on Mus musculus was inactive. Besides, the LC50 came out at 100 µM in [2] and 75.5 µM in [4]. For the same molecule, the LC50 (concentration causing 50% net cell kill) was 91.7 µM in data set [3] and 100 µM in data set [8]. In addition, the CC50 stood at 100 µM in data set [5], 93.1 µM in data set [9] and 83 µM in data set [10]. This molecule had an MTD in [6] of more than 400 mg/kg. Moreover, the growth at 10 µM in the data set on U-251 is -25.1%. Besides, in [7], the LC50 (concentration lethal to 50% of cells) was determined as 83.8 µM.
As to `O=C1Nc2ccccc2C1n1nc(-c2ccc3ccccc3c2)cc1-c1ccc(Cl)cc1` (stereo unspecified), the growth at 10 µM in the data set on NCI-H522 was found to be 90.8%.
As for `COc1ccc(-c2cc(-c3ccc(OC)cc3)n(C3C(=O)Nc4ccc(Br)cc43)n2)cc1` (stereo unspecified), the growth at 10 µM in the data set with NCI-H522 is 88.6%.
On the same count and under the same terms, as for `O=C1Nc2ccccc2C1n1nc(-c2ccccc2)cc1-c1ccc(Cl)cc1` (stereo unspecified), the figure is 76.6%.
`COc1ccc(C2=NN(C3=NC(=O)/C(=C4\C(=O)Nc5ccc(Cl)cc54)S3)C(c3ccc(OC)cc3)C2)cc1` (stereo unspecified): the 50% growth inhibitory concentration (GI50) in data set [1] came out at 0.2 µM; in [2], 0.25 µM; in data set [3], 0.22 µM; in data set [4], 0.19 µM; in data set [5], 0.2 µM; in data set [7], 0.21 µM. Also, the GI50 came out at 0.23 µM in [8], 0.28 µM in data set [9] and 0.19 µM in data set [10]. The LC50 (concentration giving 50% net cell kill) in data set [1] was found to be 35.5 µM. The TGI is 0.42 µM in data set [1]; 0.71 µM in data set [2]; 0.5 µM in data set [3]; 0.39 µM in data set [4]; 0.44 µM in data set [5]; 0.43 µM in [7]. Besides, the results for the TGI in [8], in [9] and in [10] were 21.2 µM, 75.2 µM and 0.38 µM, respectively. Also, the figures for the LC50 in [2] and in data set [4] were 100 µM and 50.5 µM, respectively. The LC50 (concentration causing 50% net cell kill) in data set [3] was found to be 75.2 µM; in [8], 83.5 µM. For the same molecule, the results for the CC50 in data set [5], in data set [9] and in data set [10] were 64.2 µM, 100 µM and 33.9 µM, respectively. Also, the growth at 10 µM with NCI-H522 came to 0.8%. Further, the LC50 (concentration lethal to 50% of cells) in [7] was determined as 58.7 µM.
